Data on one molecule can be found in patent publication US20210395239A1 (Hoffmann-La Roche Inc., priority 2018, published 2021).

Each structure is given as a SMILES string. pIC50: −log10 of the molar value.

This assay deals with T1, human TLR7 (Homo sapiens, UniProt Q9NYK1).
T1 construct: host or cells: HEK293 (HEK-Blue hTLR7)
T1 sequence (Q9NYK1 27-1049): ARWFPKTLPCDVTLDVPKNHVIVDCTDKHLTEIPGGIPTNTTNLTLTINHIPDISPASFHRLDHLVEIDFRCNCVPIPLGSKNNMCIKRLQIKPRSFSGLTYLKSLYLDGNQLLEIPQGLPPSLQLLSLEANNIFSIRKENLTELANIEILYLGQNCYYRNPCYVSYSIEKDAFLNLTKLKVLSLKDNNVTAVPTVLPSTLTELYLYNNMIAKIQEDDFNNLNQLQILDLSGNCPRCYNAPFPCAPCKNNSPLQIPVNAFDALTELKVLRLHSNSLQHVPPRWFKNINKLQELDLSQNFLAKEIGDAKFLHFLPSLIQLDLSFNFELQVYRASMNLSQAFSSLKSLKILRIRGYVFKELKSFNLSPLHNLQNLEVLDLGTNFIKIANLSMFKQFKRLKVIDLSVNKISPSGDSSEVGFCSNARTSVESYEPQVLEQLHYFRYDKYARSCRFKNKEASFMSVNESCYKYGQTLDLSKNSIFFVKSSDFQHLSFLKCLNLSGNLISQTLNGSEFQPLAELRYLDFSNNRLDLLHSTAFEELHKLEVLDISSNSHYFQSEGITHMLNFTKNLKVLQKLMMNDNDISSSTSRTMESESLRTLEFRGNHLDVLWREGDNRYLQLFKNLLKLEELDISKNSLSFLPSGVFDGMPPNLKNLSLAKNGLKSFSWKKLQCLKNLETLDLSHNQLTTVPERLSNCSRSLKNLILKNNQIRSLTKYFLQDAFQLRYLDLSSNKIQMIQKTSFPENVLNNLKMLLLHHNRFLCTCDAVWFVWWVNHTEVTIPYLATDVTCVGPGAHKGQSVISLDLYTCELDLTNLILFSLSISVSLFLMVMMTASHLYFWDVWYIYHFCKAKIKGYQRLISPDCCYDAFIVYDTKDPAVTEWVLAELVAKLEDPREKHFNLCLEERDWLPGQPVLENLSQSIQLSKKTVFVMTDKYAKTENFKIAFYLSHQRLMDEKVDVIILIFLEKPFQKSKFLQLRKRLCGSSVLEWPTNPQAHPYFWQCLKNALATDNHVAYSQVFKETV
Put plainly: HEK293-Blue-hTLR-7 cells assay (SEAP reporter, R848 stimulation). Type of assay: cell-based. The note with it: HEK293-Blue-hTLR7 cells, R848, 20 hrs; read-out: HEK/hTLR7 IC50. Summed up:
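HEK293-Blue-hTLR7 cells (NF-κB/AP-1-driven SEAP reporter) were stimulated with R848 alongside serially diluted compound at 1% final DMSO for 20 h at 37 °C. Supernatant SEAP was then developed with QUANTI-Blue for 2 h at 37 °C and absorbance read at 620–655 nm; antagonism is measured as reduced reporter signal.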

For `Cc1cc(N2CCN(C[C@H]3CN(c4ccc(C#N)c5ncccc45)C[C@@H](C)O3)CC2)nc(N2CC[C@@H](N)[C@@H](F)C2)n1` [Example 78, 5-[(2S,6R)-2-[[4-[2-[(3S,4R)-4-amino-3-fluoro-1-piperidyl]-6-methyl-pyrimidin-4-yl]piperazin-1-yl]methyl]-6-methyl-morpholin-4-yl]quinoline-8-carbonitrile], the pIC50 is 7.70.
